Experiment [1] concerns the target T1, DGKα (hDGKalpha(1-735)-N-His) (Homo sapiens, UniProt P23743).
T1 construct: hDGKalpha(1-735)-N-His; His (N); made in house; host or cells: Sf21 insect cells (baculovirus)
Nature of the experiment: In vitro DGK inhibition assay, DGKalpha ADP Glo (in house). It is filed as biochemical. Conditions: 4 nM DGKα, 25 μM ATP, 125 uM DLG in liposomes, 1 hour reaction. An outline of the steps:
(§1)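 Full-length His-tagged human DGKα (4 nM) or DGKζ (2 nM), expressed in Sf21 cells, phosphorylated 125 µM DLG in PS/PC liposomes with ATP at 25 µM (α) or 50 µM (ζ) for 1 h. ADP was measured by ADP-Glo luminescence. Compounds were tested as 11-point 1:3 series in 2% DMSO.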
For orientation: ADP-Glo first removes unused ATP, then detects ADP through luciferase.

Experiment [2] concerns the target T2, DGKζ (hDGKzeta(1-928)-N-His) (Homo sapiens, UniProt Q13574).
T2 construct: hDGKzeta(1-928)-N-His; His (N); made in house; host or cells: Sf21 insect cells (baculovirus)
Nature of the experiment: In vitro DGK inhibition assay, DGKzeta ADP Glo (in house). The experiment is classed as biochemical. The note with it: 2 nM DGKζ, 50 μM ATP, 125 uM DLG in liposomes, 1 hour reaction. An outline of the steps: as §1

A further experiment deals with T3, DGK α kinase (Homo sapiens, UniProt P23743).
T3 construct: purchased Reaction Biology Corp. (contract assay service)
Nature of the experiment: DGKalpha kinase ADP Glo assay run by Reaction Biology Corp. It is filed as biochemical. The note with it: 2 nM kinase, 50 µM ATP, 500 μM DLG, 10-dose duplicate. Here is the method:
DGK α and ζ kinases use ATP to phosphorylate the substrate 1,2-dilauroyl-sn-glycerol (DLG). ATP is converted to ADP as a result of this enzymatic reaction.
After the kinase reaction, an ATP-depletion reagent is added to terminate the kinase reaction and deplete any remaining ATP, leaving only ADP. Second, a detection reagent is added to simultaneously convert ADP to ATP and allow the newly synthesized ATP to be converted to light using a coupled luciferase/luciferin reaction.
DGK α and ζ kinase ADP Glo assays were ran by Reaction Biology Corp., 1 Great Valley Parkway, Suite 2, Malvern, 19355, PA, USA. Information provided by the service provider are the following: DGK α and ζ kinases were used at 2 nM final concentration. Reactions were carried out at 50 µM ATP. 500 μM of the substrate DLG (Dilauroyl-sn-glycerol) was used.

A further experiment deals with MV-3 cells. In words: T-cell - TCB - MV3 killing assay. The experiment is classed as cell-based, human. The note with it: for Emax: Homo sapiens, MV-3, 120 h, % TCL normalized: MCSP-TCB only = neutral control, 20 μM reference compound A1 = 100%, read-out: MSCP TCB killing MV-3 cells 5 d Emax (%); for EC50: primary human T-cells + MV-3 RFP cells, MCSP-TCB 1.5 pM-5 pM, 120 hours imaging, read-out: MSCP TCB killing MV-3 cells 5 d EC50. As to the method: All culturing steps are executed at 5% CO2, 37° C. and 95% humidity. MV-3 RFP cells are cultured in MV-3 medium (DMEM+10% FBS, 1× PenStrep and 0.5 μg/mL Puromycin) for at least 3 weeks. Cultured MV-3 cells at 80% confluency are washed once with PBS−− and trypsinized until detached. […] Cells are seeded with 100 μL/well into a 96-well plate (TTP, #92696), and placed for 40 minutes without moving at room temperature in order to achieve evenly distributed attachment of cells. Plates are then incubated until further use.
On the next day, expanded primary human T-cells are thawed and resuspended in T-cell medium to 4*10^6 cells/mL. For 3 hours, they are cultured in a 6-well plate with 6 mL per well at maximum. After culturing the T-cells, they are filtered through a cell strainer (Miltenyi Biotech, #130-041-407), counted again, and cell concentration is adjusted to 2*10^6 cells/mL.
MCSP-TCB or PBS are pre-diluted in T-cell medium (concentration depending on T-cell donor), 4 times more concentrated than the end-concentration. 60 μL/well of pre-dilutions are then distributed into a round bottom plate (Costar, #3799) according to plate layout. Compounds are added in a 9 pt dose response with the Tecan D300e Digital Dispenser, as well 4 times more concentrated than the end-concentration. DMSO concentration of all wells is adjusted to 0.8%, resulting in 0.2% as final concentration.
60 μL per well of T-cell suspension are added to the prepared round bottom plate and resuspended with a manual multichannel. 100 μL/well of the resuspended T-cell suspension including treatments are then transferred cautiously to the over-night cultured MV-3 cells according to plate layout. 100 μL T-cell medium only is added to the outer MV-3 wells only. Final compound DR is starting at 20 μM with a dilution factor of 3.333. Final TCB concentration is between 1.5 pM to 5 pM and was determined for each T-cell donor individually by running TCB titrations. For each donor, a TCB concentration was chosen which corresponds to 10-20% MV3 baseline cell killing in the absence of compound treatment. Positive control is the reference compound A1 which is added in a DR, as well as additional wells with only 20 μM. 20 μM of reference compound A1 represent the positive stimulator control, TCB only (DMSO wells) the neutral control.
After transfer of T-cells with treatment pre-dilutions, MV-3 cells are imaged by time-lapse microscopy using IncucyteZOOM™ (Essen BioScience, MI, USA). Imaging is performed every 3 hours for a total of 120 hours (10× objective, phase and red image channels, acquisition time 400 ms, Green/Red 4614 optical module). RFP object count per well is analysed in the IncucyteZOOM™ Software (Version 2019B Rev2) with a mask that was previously created and optimized for MV-3 cells. Raw data is exported as object count/well and values are normalized as % TCL compared to wells with MV-3 only, representing 100% growth and therefore 0% TCL.
Calculated % TCL values are analysed in Genedata Screener using Roche Normalization PCT_POS_CTRL with MCSP-TCB only set as Neutral Control and 20 μM of the reference compound A1 set as Stimulator Control/100%.
Induced TCL by compounds without TCB treatment or toxicity (observed in the PBS condition) were be flagged.

Each structure is given as a SMILES string.

T2 sequence (Q13574 whole entry): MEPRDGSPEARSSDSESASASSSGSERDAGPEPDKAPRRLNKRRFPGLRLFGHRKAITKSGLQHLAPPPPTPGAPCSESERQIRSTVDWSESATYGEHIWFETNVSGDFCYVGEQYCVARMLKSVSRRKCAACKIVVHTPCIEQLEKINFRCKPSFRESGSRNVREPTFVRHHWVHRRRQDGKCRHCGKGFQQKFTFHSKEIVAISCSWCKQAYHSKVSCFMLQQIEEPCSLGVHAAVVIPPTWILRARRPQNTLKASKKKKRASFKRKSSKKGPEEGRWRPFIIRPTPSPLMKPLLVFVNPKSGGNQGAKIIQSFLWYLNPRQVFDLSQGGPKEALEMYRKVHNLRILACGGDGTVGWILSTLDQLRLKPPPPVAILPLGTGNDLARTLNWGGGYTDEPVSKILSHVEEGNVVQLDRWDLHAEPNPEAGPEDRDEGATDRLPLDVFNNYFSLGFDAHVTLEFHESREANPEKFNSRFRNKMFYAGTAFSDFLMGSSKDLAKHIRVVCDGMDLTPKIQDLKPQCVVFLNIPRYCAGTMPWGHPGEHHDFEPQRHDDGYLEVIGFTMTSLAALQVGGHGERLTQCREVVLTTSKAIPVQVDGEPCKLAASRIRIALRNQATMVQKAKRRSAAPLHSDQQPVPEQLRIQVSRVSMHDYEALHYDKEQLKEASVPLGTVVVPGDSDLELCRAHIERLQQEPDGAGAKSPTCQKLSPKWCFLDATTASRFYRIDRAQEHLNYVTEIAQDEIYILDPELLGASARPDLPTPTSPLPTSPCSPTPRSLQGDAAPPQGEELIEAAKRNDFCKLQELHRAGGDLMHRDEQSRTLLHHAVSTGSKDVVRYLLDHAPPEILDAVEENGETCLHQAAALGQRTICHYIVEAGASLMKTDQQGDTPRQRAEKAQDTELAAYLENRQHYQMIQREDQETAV
T1 sequence (P23743 whole entry): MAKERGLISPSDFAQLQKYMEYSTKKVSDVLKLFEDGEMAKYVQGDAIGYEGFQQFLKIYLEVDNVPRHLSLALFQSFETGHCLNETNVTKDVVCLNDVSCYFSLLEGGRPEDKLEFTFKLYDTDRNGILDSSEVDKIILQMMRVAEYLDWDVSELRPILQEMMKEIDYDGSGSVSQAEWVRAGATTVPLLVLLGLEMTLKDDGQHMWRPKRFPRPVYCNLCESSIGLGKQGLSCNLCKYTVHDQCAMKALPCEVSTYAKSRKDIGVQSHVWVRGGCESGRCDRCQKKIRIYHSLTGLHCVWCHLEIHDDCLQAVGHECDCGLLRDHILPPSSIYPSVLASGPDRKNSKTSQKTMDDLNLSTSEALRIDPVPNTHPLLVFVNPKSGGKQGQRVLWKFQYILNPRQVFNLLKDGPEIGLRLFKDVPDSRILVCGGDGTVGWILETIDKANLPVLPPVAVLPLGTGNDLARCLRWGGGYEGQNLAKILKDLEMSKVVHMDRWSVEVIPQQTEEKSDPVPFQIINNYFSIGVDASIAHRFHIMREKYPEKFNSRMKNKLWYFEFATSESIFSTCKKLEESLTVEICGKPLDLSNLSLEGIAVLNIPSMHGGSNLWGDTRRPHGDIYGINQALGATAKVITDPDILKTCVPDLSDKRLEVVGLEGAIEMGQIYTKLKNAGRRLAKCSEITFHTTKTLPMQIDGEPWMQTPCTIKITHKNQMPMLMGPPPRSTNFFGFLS
T3 sequence (P23743 whole entry): as above

By IC50 is commonly meant the point on the concentration scale where inhibition reaches its midpoint. A low value points to inhibition by little substance. By Emax is commonly meant the size of the effect at its maximum, as opposed to the concentration needed. A word on the EC50: it is the midpoint of the concentration-response curve. As for `CC(N)(c1nnc(-c2ccc3c(c2)N(Cc2ccc(-c4noc(C(F)(F)F)n4)cc2)C(=O)[C@@H](N)CS3(=O)=O)o1)C(F)(F)F` (stereo partly drawn) [Example 32, (3R)-3-amino-7-[5-(1-amino-2,2,2-trifluoro-1-methyl-ethyl)-1,3,4-oxadiazol-2-yl]-1,1-dioxo-5-[[4-[5-(trifluoromethyl)-1,2,4-oxadiazol-3-yl]phenyl]methyl]-2,3-dihydro-1λ^6,5-benzothiazepin-4-one], the IC50 in experiment [1] was found to be 39400 nM; in experiment [2], 1740 nM; at DGK α kinase, 173 nM. Also, the Emax in the experiment on MV-3 cells was 100%. The EC50 in the experiment on MV-3 cells is 120 nM.
Taken in the same sequence, the figures for `CC(C)(C)c1nnc(-c2ccc3c(c2)N(Cc2ccc(-c4nnc(C(F)(F)F)o4)cc2)C(=O)[C@@H](N)CS3(=O)=O)o1` [Example 24, (3R)-3-amino-7-(5-tert-butyl-1,3,4-oxadiazol-2-yl)-1,1-dioxo-5-[[4-[5-(trifluoromethyl)-1,3,4-oxadiazol-2-yl]phenyl]methyl]-2,3-dihydro-1λ^6,5-benzothiazepin-4-one] were 9860 nM, 1440 nM, 282 nM, 108% and 273 nM.

These data come from US20260138976A1 (Hoffmann-La Roche Inc., priority 2022, published 2026).
